The source of these data is patent US20250340529A1, “Heterocyclic Compounds as Immunomodulators of PD-L1 Interactions” (Ascletis BioScience Co., Ltd, priority 2021, published 2025).

For test [1], the system named is Hep3B-OS8-hPDL1 cells and CD3+ T cells. Kind of test: Hep3B-OS8-hPDL1 and T cells co-culture assay (IFN-γ by ELISA). The note with it: Homo sapiens, T-cell, 72 hours, read-out: Tumor and T Cell EC50 (nm). It is filed as cell-based. The procedure:
a. Hep3B-OS8-hPDL1 and T Cells Co-Culture Assay
• 1. Hep3B-OS8-hPDL1 cells were cultured in 1640 medium supplemented with 10% fetal bovine serum, 1% penicillin and streptomycin, in which 100 μg/mL G418 and Hygromycin B were also added. • 2. Hep3B-OS8-hPDL1 cells were harvested and treated with 10 μg/mL mitomycin C at 37° C. for 1.5 h, and the cells were then washed thoroughly with PBS for four times. • 3. Cells were re-suspended with RPMI 1640 medium containing 10% FBS and the cell density was adjusted to 5E5 cells/mL. • 4. Cells were seeded into 96-well flat bottom plate (2.5E4 cells/50 μL/well). b. CD3+ T Cells Isolation (30 mL Blood) • 5. The human blood sample from an individual donor is diluted by the same volume of sterile PBS, for instance add 25 mL sterile PBS into 25 mL fresh whole blood and mix sufficiently by gentle shake. • 6. Transfer 15 mL Lymphoprep medium into a new 50 mL centrifuge tube. • 7. Add the diluted blood sample as soft as possible onto the surface of the Ficoll medium to make sure there is a clear dividing line between the two liquids, and the volume ratio between Ficoll and diluted blood (30 mL) is 1:2. • 8. Move the tube gently to centrifuge, at 1000×g, 25 min, 20° C., with the acceleration (5) and Min deceleration (0) settings during the centrifugation. • 9. Four interfaces in all could be observed after the centrifugation, which are layers of plasma, mononuclear cells, the Ficoll medium and RBCs from top to bottom, and move the tube as gently as possible so as keep the four interfaces separated. Absorb and transfer the second layer of mononuclear cells into another new sterile centrifuge tube carefully, and absorb certain volume of plasma instead of the Ficoll medium if inevitable. • 10. Add sterile PBS of the three times the volume of PBMCs in the tube with PBMC. • 11. Wash the cells twice with 5-10 mL PBS before cell counting with cytometer. Centrifuge at 350×g, 10 min, 20° C. With the acceleration (5) and deceleration (5) settings during the centrifugation. • 12. Resuspend the cells with recommended medium and adjust the density of the PBMCs to the final concentration of 5E7 cells/mL. • 13. Isolate CD3+ T cells with EasySep™ Human T Cell Isolation Kit (STEMCELL Technologies #17951), and the cells were seeded into 96-well flat bottom plate (5E4 cells/100 μL/well). c. Compounds solutions preparation • 14. Prepare the Compounds dilutions in RPMI 1640 medium with 10% FBS according to the Layout. 15. Add compounds into each well in a volume of 50 μL. {3 compounds (GLC01-258, GLC01-269, GLC01-465) in 7 concentrations (0.03, 0.1, 0.3, 1, 3, 10 and 30 μM) and 6 compounds (GLC01-411, GLC01-292, GLC01-445, GLC01-475, GLC01-470 and GLC01-468) in the same concentration (1 μM)}. • 16. […]
Background: ELISA stands for enzyme-linked immunosorbent assay.

Test [2] concerns the target extracellular domains of PD-L1 (Homo sapiens (Human), UniProt Q9NZQ7). Kind of test: PD-L1 dimerization (biochemical protein-protein interaction assay). The settings on record: PDL1-Eu and PDL1-A2, 25° C., 120 min. The procedure: Compounds were tested in biochemical protein-protein interaction assays to determine if they can specifically dimerize the extracellular domains of PD-L1. • (1) Dilute cpd 1:3 in succession in DMSO for each column for 10±0 pts (refer to dilution plate map) • (2) Transfer 0.2 μL cpds solution in each row to 384 assay plate using Echo, each column containing 2 replicates (refer to assay plate map). • (3) Add 20 μL prepared mixture include PDL1-Eu and PDL1-A2 solution to assay plate, centrifuge at 1000 rpm for 1 min. • (4) Incubate at 25° C. for 120 min. • (5) Read fluorescence signal on Envision 2104 plate reader. • (6) Read the Ratio (665 nm/615 nm) signal on Envision. • (7) Analyze the raw data using the equation (V. Data analysis)

Chain of extracellular domains of PD-L1 (Q9NZQ7 19-238): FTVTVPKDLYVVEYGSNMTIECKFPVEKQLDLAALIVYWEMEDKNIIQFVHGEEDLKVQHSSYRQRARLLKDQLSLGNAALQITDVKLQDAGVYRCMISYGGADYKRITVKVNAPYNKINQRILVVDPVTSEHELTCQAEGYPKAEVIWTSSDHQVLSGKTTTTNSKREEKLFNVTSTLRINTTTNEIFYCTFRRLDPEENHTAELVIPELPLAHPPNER

One may read the EC50 as the concentration that produces a half-maximal response. `O=C1COc2cc(-c3cccc(-c4cccc(-c5ccc6c(c5)OCC(=O)N6C[C@H]5CCCN5)c4Cl)c3Cl)ccc2N1C[C@H]1CCCN1` [Compound 529]: in test [1], the EC50 worked out at 325 nM.

`O=C(O)[C@H](CO)NCCN1C(=O)COc2cc(-c3cccc(-c4cccc(-c5ccc6c(c5)OCC(=O)N6CCN[C@@H](CO)C(=O)O)c4Cl)c3Cl)ccc21` [Compound 465]: the 50% effective concentration (EC50) is 77.9 nM in test [2] and 1.2 nM in test [1].
